Experimental data published in the supplement of paper PMC10627819.

How the values were obtained:
B. subtilis 168 [1] = test: fitness (endpoint OD595 vs no drug) (fraction); higher = more growth
Summary of the method: (§1)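 At 37 °C, bacteria in TSB, LB Lennox or CY were grown in 384-well plates from a starting OD595 of 0.01. OD595 was measured every 30 min for 14 h, with the first reading used as background. Fitness is the optical density at the switch to stationary phase as a fraction of the robust mean of no-drug control wells, capped at 1.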

S. pneumoniae D39V [2] = test: as above
Summary of the method: as §1

S. aureus DSM 20231 [3] = test: as above
Summary of the method: as §1

B. subtilis 168 [4] = test: Bliss interaction score (quartile over a dose matrix) (fitness difference); higher = more antagonism (negative = synergy)
Summary of the method: (§2)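 Combination data were used to infer fitness under each single drug. Fitness is the OD595 at entry into stationary phase divided by the robust mean of the plate's no-drug wells, with a cap of 1. The Bliss score is the observed minus the expected product fitness, summarised by quartiles over technical, biological and donor/recipient replicates.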

S. pneumoniae D39V [5] = test: as above
Summary of the method: as §2

S. aureus Newman = test: as above
Summary of the method: as §2

S. aureus DSM 20231 [6] = test: as above
Summary of the method: as §2
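For Bliss interaction score (quartile over a dose matrix) in this document: first quartile when negative (synergy) and third quartile when positive (antagonism).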

O=C(O[C@@H]1Cc2c(O)cc(O)cc2O[C@@H]1c1cc(O)c(O)c(O)c1)c1cc(O)c(O)c(O)c1 [EGCG] + CC(=O)NC[C@H]1CN(c2ccc(N3CCOCC3)c(F)c2)C(=O)O1 [Linezolid]
fitness, one replicate
Conditions | first compound 6.25 µg/mL | first compound 12.5 µg/mL | first compound 25 µg/mL | first compound 50 µg/mL
B. subtilis 168 [1], partner 0.0625 µg/mL | 0.854 | 0.61 | 0.286 | –
S. aureus DSM 20231 [3], partner 1 µg/mL | – | 0.0545 | 0.076 | 0.0554

fitness
Conditions | first compound 6.25 µg/mL | first compound 12.5 µg/mL | first compound 25 µg/mL | first compound 50 µg/mL
B. subtilis 168 [1], partner 0.125 µg/mL | 0.582 | 0.482 | – | –
B. subtilis 168 [1], partner 0.25 µg/mL | – | – | 0.0697 | –
B. subtilis 168 [1], partner 0.5 µg/mL | 0.0716 | 0.0599 | 0.0583 | –
S. aureus DSM 20231 [3], partner 0.125 µg/mL | – | 0.745 | 0.816 | 0.708
S. aureus DSM 20231 [3], partner 0.25 µg/mL | – | 0.551 | 0.559 | 0.563
S. aureus DSM 20231 [3], partner 0.5 µg/mL | – | 0.223 | 0.25 | 0.159
S. pneumoniae D39V [2], partner 0.105 µg/mL | – | 0.735 | 0.634 | 0.752
S. pneumoniae D39V [2], partner 0.2 µg/mL | – | 0.533 | 0.517 | 0.411
S. pneumoniae D39V [2], partner 0.21 µg/mL | – | 0.604 | 0.688 | 0.64
S. pneumoniae D39V [2], partner 0.4 µg/mL | – | 0.283 | 0.249 | 0.218
S. pneumoniae D39V [2], partner 0.42 µg/mL | – | 0.505 | – | 0.498
S. pneumoniae D39V [2], partner 0.8 µg/mL | – | 0.12 | 0.0783 | 0.133

Conditions | Bliss interaction score
B. subtilis 168 [4] | 0.0875
S. aureus DSM 20231 [6] | 0.0748
S. aureus Newman | 0.0955
S. pneumoniae D39V [5] | -0.1

O=C(O[C@@H]1Cc2c(O)cc(O)cc2O[C@@H]1c1cc(O)c(O)c(O)c1)c1cc(O)c(O)c(O)c1 [EGCG] + CCC[C@@H]1C[C@@H](C(=O)N[C@@H]([C@H]2O[C@H](SC)[C@H](O)[C@@H](O)[C@H]2O)[C@@H](C)O)N(C)C1 [Lincomycin]
fitness
Conditions | partner 0.1 µg/mL | partner 0.2 µg/mL | partner 0.215 µg/mL | partner 0.4 µg/mL | partner 0.43 µg/mL | partner 0.8 µg/mL | partner 0.86 µg/mL
B. subtilis 168 [1], first compound 6.25 µg/mL | 0.889 | 0.88 | – | 0.908 | – | – | –
S. aureus DSM 20231 [3], first compound 12.5 µg/mL | 0.593 | 0.505 | – | 0.354 | – | – | –
S. aureus DSM 20231 [3], first compound 25 µg/mL | 0.592 | 0.553 | – | 0.306 | – | – | –
S. aureus DSM 20231 [3], first compound 50 µg/mL | 0.549 | – | – | 0.142 | – | – | –
S. pneumoniae D39V [2], first compound 12.5 µg/mL | – | 0.429 | 0.739 | 0.273 | 0.565 | 0.0193 | 0.389
S. pneumoniae D39V [2], first compound 25 µg/mL | – | 0.483 | 0.713 | 0.439 | 0.668 | 0.0594 | 0.456
S. pneumoniae D39V [2], first compound 50 µg/mL | – | 0.328 | 0.565 | 0.182 | 0.671 | – | –

fitness, B. subtilis 168 [1], one replicate
Conditions | first compound 6.25 µg/mL | first compound 12.5 µg/mL | first compound 25 µg/mL
partner 0.8 µg/mL | 0.908 | 0.761 | 0.709
partner 1.6 µg/mL | 0.864 | 0.734 | 0.606

Conditions | Bliss interaction score
B. subtilis 168 [4] | 0.102
S. aureus DSM 20231 [6] | -0.119
S. aureus Newman | -0.056
S. pneumoniae D39V [5] | -0.112
